Data on nine molecules can be found in US5599812A, “Tricyclic pyrrolopyrazine 5-HT3 -active compounds” (Adir Et Compagnie, priority 1993, dated 1997).

Broadly, the EC50 is the midpoint of the concentration-response curve.

The target of series [1] is T1, 5-HT3 receptors (Rattus norvegicus, UniProt P35563).
T1 construct: bradycardia induced by stimulation of 5-HT3 receptors on vagal afferent neurons; from tissue; host or cells: whole anesthetized rat; receptors on vagal afferent neurons
T1 sequence (P35563 24-483): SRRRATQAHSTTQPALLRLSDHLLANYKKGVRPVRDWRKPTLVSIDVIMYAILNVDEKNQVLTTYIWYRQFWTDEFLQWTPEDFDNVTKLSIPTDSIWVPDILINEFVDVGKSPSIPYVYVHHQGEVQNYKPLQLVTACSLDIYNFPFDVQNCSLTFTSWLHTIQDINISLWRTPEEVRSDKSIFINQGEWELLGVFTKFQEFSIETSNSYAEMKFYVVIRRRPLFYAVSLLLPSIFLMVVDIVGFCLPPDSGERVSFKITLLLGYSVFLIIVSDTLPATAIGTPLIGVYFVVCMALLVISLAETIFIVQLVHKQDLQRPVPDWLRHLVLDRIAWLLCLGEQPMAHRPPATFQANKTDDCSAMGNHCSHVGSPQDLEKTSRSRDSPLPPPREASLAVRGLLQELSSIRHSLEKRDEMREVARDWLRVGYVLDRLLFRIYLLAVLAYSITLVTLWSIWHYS
The series can be described thus: Bradycardic Bezold-Jarisch reflex in anesthetized rats. It is filed as in vivo, Sprague-Dawley. The settings on record: for dose completely preventing the agonist-induced bradycardia: prior i.v. administration, against 30 μg i.v. agonist; for fall in the cardiac rhythm / duration of the fall in the cardiac rhythm: i.v. injection of 30 μg; for duration of the fall in the cardiac rhythm: approximately. The procedure:
Bradycardia (Bezold-Jarisch reflex) is induced by the intravenous injection of 5-HT3 serotonin in rats anesthetized with urethane.
This response consists of a violent but transitory bradycardia induced by stimulation of 5-HT3 receptors on vagal afferent neurons.
The animal (adult male rat, Sprague-Dawley strain, 250-300 g) is first of all anesthetized with urethane (1.4 g/kg i.p.) and then a tracheotomy is performed in order to implant a tracheal cannula. A catheter (0.3 mm)is introduced into the abdominal aorta via the femoral artery for the continuous recording of the arterial pressure and the cardiac rhythm.
Bradycardia is expressed as percentage of lowering (maximum) of the base rhythm, before any treatment (means±M.S.D.).

In series [2] the target is T2, 5-HT3 receptors (Mus musculus, UniProt P23979).
T2 sequence (P23979 24-489): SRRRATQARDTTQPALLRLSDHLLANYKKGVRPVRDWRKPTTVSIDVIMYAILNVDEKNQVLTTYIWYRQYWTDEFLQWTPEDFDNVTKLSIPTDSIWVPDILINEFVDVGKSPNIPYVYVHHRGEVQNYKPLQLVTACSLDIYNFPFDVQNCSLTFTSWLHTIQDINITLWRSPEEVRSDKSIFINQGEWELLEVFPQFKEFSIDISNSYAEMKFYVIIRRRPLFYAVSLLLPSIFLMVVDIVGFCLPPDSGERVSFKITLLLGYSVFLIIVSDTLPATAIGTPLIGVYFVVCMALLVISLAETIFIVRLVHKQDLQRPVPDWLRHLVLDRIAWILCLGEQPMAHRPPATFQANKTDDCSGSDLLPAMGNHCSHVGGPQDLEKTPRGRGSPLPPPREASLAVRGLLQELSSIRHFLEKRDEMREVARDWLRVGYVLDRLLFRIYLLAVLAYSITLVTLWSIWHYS
The series can be described thus: Accumulation of 14C-guanidinium in NG 108-15 cells. The settings on record: for multiplication of the intracellular accumulation of 14C-guanidinium: fold, agonist at 10 μM-0.1 mM. The procedure:
The accumulation of ^14 -C-guanidinium in NG 108-15 cells is measured and makes it possible to study the interaction of the tested compounds with 5-HT3 receptors, knowing that this accumulation is stimulated by agonists of 5-HT3 receptors.
The NG 108-15 hybrid clone (neuroblastoma-glioma) is cultured under standard conditions (Dulbecco's medium to which 40 mM of sodium bicarbonate, 1.8 mM of L-glutamine, 0.1 mM of hypoxanthine, 1 μM of aminopterin, 16 μM of thymine and 10% of fetal calf serum are added) at 37° C. in an atmosphere enriched in CO2 (7%). At confluence (.congruent.3.5×10^5 cells in dishes with diameters of 35 mm), the culture medium is sucked off and the cell lawn is rapidly washed with 3 cm^3 of a HEPES (20 mM) buffer containing 145 mM of NaCl, 5.4 mM of KCl, 1.8 mM of CaCl2, 1.0 mM of MgCl2 and 20 mM of glucose, pH 7.4. […] The incubation lasts 10 minutes at 37° C. The medium is then sucked off and the cells are rapidly washed twice with 3 cm^3 of the washing buffer in which the NaCl has been fully replaced by an equimolar concentration of choline chloride. Finally, the cell lawn is taken up in 0.5 cm^3 of 0.4N sodium hydroxide solution and the accumulated radioactivity is counted by spectrometry in liquid medium (Aquasol).

Series [3] is described as follows: Solubility in DMSO (NMR remark). The settings on record: d6-DMSO, tetrahydrochloride. The format is physicochemical.
The mark [4] stands for this setting: doses (I.V.) 30, 60 and 120 μg·Kg^-1 (one value given).

In the case of `COc1cc(N)c(Cl)cc1C(=O)NC1CN2CCC1CC2` (stereo not shown) [zacopride], on 5-HT3 receptors [1], the “dose completely preventing the agonist-induced bradycardia” value was determined as 1 µg/kg.

With `Fc1ccc(CN2CCN(c3nc4cc(Cl)ccc4n4cccc34)CC2)cc1` [Example 4, 7-CHLORO-4-[4-(4-FLUOROBENZYL)PIPERAZINO]PYRROLO[1,2-a]QUINOXALINE], a half-maximal response at 5-HT3 receptors [2] (EC50) required 100 nM. For the same molecule, the “Antagonist effect at (concentration)” value at 5-HT3 receptors [2] (antagonist effect, 14C-guanidinium accumulation, NG 108-15 cells) was found to be 3 nM. Further, the “Agonist Effect, Bradycardia %” value at 5-HT3 receptors [1] (setting [4]) stood at 0%.

`c1ccc(CN2CCN(c3ccc4nc(N5CCN(Cc6ccccc6)CC5)c5cccn5c4n3)CC2)cc1` [Example 93, 2,6-bis(4-benzylpiperazino)pyrido[3,2-e]pyrrolo[1,2-a]pyrazine]: the “solubility in DMSO” value in series [3] was “insoluble”.

For the molecule `Cc1[nH]c2ccc(O)cc2c1CCN` [2-methyl-5-hydroxytryptamine], on 5-HT3 receptors [2], the “multiplication of the intracellular accumulation of 14C-guanidinium” value came out at 5. Moreover, on 5-HT3 receptors [1], the “fall in the cardiac rhythm” value was -80% and the “duration of the fall in the cardiac rhythm” value was in the range of 4 to 5 s.

As to `Cc1nccn1CC1CCc2c(c3ccccc3n2C)C1=O` (stereo not shown) [ondansetron], the “dose completely preventing the agonist-induced bradycardia” value at 5-HT3 receptors [1] worked out at 1 µg/kg.

`c1ccc(CN2CCN(c3nc4ccccc4n4cccc34)CC2)cc1` [Example 1, 4-(4-benzylpiperazino)pyrrolo[1,2-a]quinoxaline] showed an EC50 on 5-HT3 receptors [2] of about 100 nM.

On to `c1ccc(CN2CCN(c3nc4cccnc4n4cccc34)CC2)cc1` [Example 11, 6-(4-benzylpiperazino)pyrido[3,2-e]pyrrolo [1,2-a]pyrazine], for which the EC50 at 5-HT3 receptors [2] came to 30 nM. At 5-HT3 receptors [1] (I.V., rat, Bezold-Jarisch reflex), the “Antagonist effect at (dose)” value came to 120 µg/kg. In addition, at 5-HT3 receptors [1] (dose (I.V.) 120 μg·Kg^-1, n = 7, maximum lowering of base rhythm, means ± M.S.D.), the “Agonist Effect, Bradycardia %” value stood at 59.4 ± 7.2%.

At 5-HT3 receptors [2], `Clc1ccc2c(c1)nc(N1CCN(Cc3ccccc3)CC1)c1cccn12` [Example 3, 4-(4-benzylpiperazino)-7-chloropyrrolo[1,2-a]quinoxaline] returned an EC50 of 50 nM. For the same molecule, the “Agonist Effect, Bradycardia %” value on 5-HT3 receptors [1] (setting [4]) amounted to 0%.

Turning to `NCCc1c[nH]c2ccc(O)cc12` [serotonin], on 5-HT3 receptors [2], the “multiplication of the intracellular accumulation of 14C-guanidinium” value is 5. The “Agonist Effect, Bradycardia %” value at 5-HT3 receptors [1] (dose (I.V.) 30 μg·Kg^-1, n = 21, maximum lowering of base rhythm, means ± M.S.D.) is recorded as 68.0 ± 2.3%. Also, at 5-HT3 receptors [1], the “fall in the cardiac rhythm” value is -80% and the “duration of the fall in the cardiac rhythm” value lay in the range of 4 to 5 s.
